This is an account of results in patent US11339130B1 (Blade Therapeutics, Inc., priority 2016, dated 2022).

Molecules are shown by their SMILES. Like-named read-outs stand apart in the source and are kept apart here.

Assay [1] deals with T1, Human Calpain 2/NS1 (Homo sapiens, UniProt P17655).
T1 sequence (P17655 1-700): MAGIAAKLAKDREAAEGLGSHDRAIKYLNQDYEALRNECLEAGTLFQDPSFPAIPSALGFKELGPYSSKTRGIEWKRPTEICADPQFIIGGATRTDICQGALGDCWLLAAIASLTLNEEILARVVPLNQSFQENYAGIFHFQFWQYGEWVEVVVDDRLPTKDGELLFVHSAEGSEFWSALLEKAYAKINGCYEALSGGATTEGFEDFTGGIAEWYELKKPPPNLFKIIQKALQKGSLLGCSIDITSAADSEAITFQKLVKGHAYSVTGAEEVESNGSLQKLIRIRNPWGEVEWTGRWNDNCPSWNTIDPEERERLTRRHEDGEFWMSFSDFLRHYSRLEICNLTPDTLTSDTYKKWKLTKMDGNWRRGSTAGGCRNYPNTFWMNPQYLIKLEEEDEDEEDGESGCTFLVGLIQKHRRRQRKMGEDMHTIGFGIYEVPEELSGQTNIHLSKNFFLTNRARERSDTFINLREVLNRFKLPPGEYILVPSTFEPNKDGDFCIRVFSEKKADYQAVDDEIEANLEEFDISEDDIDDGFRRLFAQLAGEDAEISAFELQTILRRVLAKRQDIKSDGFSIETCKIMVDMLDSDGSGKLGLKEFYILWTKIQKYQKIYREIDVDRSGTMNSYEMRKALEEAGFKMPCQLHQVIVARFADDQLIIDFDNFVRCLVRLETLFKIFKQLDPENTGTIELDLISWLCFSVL
T1 sequence (P04632 1-268 partner): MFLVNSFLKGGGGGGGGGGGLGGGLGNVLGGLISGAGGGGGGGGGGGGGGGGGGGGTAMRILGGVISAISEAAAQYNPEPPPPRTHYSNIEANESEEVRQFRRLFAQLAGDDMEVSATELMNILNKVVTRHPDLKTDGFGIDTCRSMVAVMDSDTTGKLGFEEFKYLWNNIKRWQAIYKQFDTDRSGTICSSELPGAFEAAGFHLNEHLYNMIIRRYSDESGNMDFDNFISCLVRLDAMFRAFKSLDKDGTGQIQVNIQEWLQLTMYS
In words: Calpain inhibition continuous fluorescence (FRET) assay, Human Calpain 2/NS1. The following applies: read-out: Human Calpain 2/NS1 IC50. It is filed as biochemical. In short, it runs like this:
(§1)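 Inhibitors were preincubated with calpain in 50 mM Tris pH 7.5, 100 mM NaCl, 1 mM DTT at 25C. Reactions were started with 5-FAM/QXL 520 FRET peptide substrate plus CaCl2 and read at 490/520 nm for 10 min. IC50s came from 4-parameter fits of slope rates (1-5 min).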

In assay [2] the test system is Calpain activity in SH-SY5Y cells (SBDP-150). The experiment in a line: SH-SY5Y Spectrin western blot assay (SBDP-150 breakdown product, A23187-induced). It is filed as cell-based. The note with it: Homo sapiens, SH-SY5Y cells, read-out: SH-SY5Y Spectrin IC50. Background: Immunoblotting shows a protein as a band on a membrane.
Assay [3] concerns Calpain activity in SH-SY5Y cells. The experiment in a line: SH-SY5Y + AMC fluorescence assay (Suc-LLVY-AMC substrate). The following applies: read-out: SH-SY5Y + AMC IC50. It is filed as cell-based.
In assay [4] the target is T2, Human Calpain 9/NS1 (Homo sapiens, UniProt O14815).
T2 sequence (O14815 1-690): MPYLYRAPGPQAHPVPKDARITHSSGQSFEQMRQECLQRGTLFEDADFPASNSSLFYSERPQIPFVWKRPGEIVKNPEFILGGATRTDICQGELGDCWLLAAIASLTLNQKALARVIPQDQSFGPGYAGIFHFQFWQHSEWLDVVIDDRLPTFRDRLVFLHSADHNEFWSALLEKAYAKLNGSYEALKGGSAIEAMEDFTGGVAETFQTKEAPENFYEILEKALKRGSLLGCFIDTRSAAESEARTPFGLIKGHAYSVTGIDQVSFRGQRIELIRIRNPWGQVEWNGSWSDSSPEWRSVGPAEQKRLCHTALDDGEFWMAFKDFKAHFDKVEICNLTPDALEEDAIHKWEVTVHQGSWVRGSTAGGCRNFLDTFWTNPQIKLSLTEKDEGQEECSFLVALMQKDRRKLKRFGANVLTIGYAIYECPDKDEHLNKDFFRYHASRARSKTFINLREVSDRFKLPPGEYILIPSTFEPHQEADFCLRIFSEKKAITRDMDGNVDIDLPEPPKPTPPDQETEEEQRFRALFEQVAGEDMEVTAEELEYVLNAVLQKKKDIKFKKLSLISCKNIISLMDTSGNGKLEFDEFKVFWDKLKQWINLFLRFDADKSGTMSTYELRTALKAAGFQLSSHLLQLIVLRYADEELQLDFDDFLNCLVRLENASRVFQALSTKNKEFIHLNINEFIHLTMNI
T2 sequence (P04632 1-268 partner): T1 sequence (P04632 1-268 partner)
In words: Calpain inhibition continuous fluorescence (FRET) assay, Human Calpain 9/NS1. The following applies: read-out: Human Calpain 9/NS1 IC50. It is filed as biochemical. In short, it runs like this:
as §1

Assay [5] concerns the target T3, Human Calpain 1/NS1 (Homo sapiens, UniProt P07384).
T3 sequence (P07384 1-714): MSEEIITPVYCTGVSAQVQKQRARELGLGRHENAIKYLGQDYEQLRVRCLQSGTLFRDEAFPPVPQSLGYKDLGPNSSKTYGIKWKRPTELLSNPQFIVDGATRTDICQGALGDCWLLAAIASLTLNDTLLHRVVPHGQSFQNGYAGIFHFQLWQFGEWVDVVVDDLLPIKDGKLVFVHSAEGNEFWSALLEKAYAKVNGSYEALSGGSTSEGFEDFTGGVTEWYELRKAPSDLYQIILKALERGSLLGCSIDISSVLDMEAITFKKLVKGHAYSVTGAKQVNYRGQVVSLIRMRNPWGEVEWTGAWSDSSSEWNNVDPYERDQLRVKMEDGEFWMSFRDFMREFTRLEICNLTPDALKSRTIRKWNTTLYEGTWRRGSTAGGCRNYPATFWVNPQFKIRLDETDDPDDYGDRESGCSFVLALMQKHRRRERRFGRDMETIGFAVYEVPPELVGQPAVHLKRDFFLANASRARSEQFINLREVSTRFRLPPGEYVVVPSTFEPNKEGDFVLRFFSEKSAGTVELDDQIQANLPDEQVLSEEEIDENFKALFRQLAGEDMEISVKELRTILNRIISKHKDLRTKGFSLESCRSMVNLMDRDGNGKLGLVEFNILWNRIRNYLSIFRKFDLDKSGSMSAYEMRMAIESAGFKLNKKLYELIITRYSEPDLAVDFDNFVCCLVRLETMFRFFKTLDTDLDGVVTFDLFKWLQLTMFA
T3 sequence (P04632 1-268 partner): T1 sequence (P04632 1-268 partner)
The experiment in a line: Calpain inhibition continuous fluorescence (FRET) assay, Human Calpain 1/NS1. It counts as biochemical. The following applies: read-out: Human Calpain 1/NS1 IC50. The method, boiled down:
as §1

Where [6] appears, read: A23187-induced SBDP-150, western blot.

On to `NC(=O)C(=O)C(CCc1ccccc1)NC(=O)c1nsnc1-c1ccccc1` (stereo not drawn) [Compound 463, N-(1-amino-1,2-dioxo-5-phenylpentan-3-yl)-4-phenyl-1,2,5-thiadiazole-3-carboxamide], for which the IC50 in assay [1] was less than 3 µM; in assay [2] (setting [6]) it was less than 10 µM; in assay [3] it was greater than 25 µM; in assay [4] it was less than 3 µM; in assay [5], less than 3 µM.
Take `COc1cccc(-c2nn(C)cc2C(=O)N[C@@H](Cc2ccccc2)C(=O)C(N)=O)c1` [Compound 177, (S)—N-(4-amino-3,4-dioxo-1-phenylbutan-2-yl)-3-(3-methoxyphenyl)-1-methyl-1H-pyrazole-4-carboxamide]: the IC50 in assay [1] (Column B) was less than 3 µM; in assay [2] (Column D, A23187-induced SBDP-150) it was 10 to 25 µM; in assay [3] (Column E), less than 10 µM; in assay [4] (Column C), less than 3 µM; in assay [5] (Column A), less than 3 µM.
As to `Cn1cc(C(=O)NC(Cc2ccccc2)C(=O)C(N)=O)c(-c2cccc(F)c2F)n1` (stereo not drawn) [Compound 480, N-(4-amino-3,4-dioxo-1-phenylbutan-2-yl)-3-(2,3-difluorophenyl)-1-methyl-1H-pyrazole-4-carboxamide], the IC50 in assay [1] was less than 3 µM; in assay [2] (setting [6]) it was 10 to 25 µM; in assay [3], 10 to 25 µM; in assay [4] it was less than 3 µM; in assay [5] it was less than 3 µM.
Take `NC(=O)C(=O)C(Cc1ccccc1)NC(=O)c1cn(C(F)F)nc1-c1cccc(F)c1` (stereo not drawn) [Compound 381, N-(4-amino-3,4-dioxo-1-phenylbutan-2-yl)-1-(difluoromethyl)-3-(3-fluorophenyl)-1H-pyrazole-4-carboxamide]: the IC50 is less than 3 µM in assay [1]; less than 10 µM in assay [2] (setting [6]); less than 10 µM in assay [3]; less than 3 µM in assay [4]; less than 3 µM in assay [5].
Regarding `Cn1cc(C(=O)NC(CCC(F)(F)F)C(=O)C(N)=O)c(-c2ccccc2)n1` (stereo not drawn) [Compound 422, N-(1-amino-6,6,6-trifluoro-1,2-dioxohexan-3-yl)-1-methyl-3-phenyl-1H-pyrazole-4-carboxamide], the IC50 in assay [1] is 3 to 10 µM; in assay [2] (setting [6]) it was greater than 25 µM; in assay [3], greater than 25 µM; in assay [4], 3 to 10 µM; in assay [5] it was greater than 10 µM.
As to `Cc1ccccc1-c1nn(C(F)F)cc1C(=O)NC(Cc1ccccc1)C(=O)C(N)=O` (stereo not drawn) [Compound 382, N-(4-amino-3,4-dioxo-1-phenylbutan-2-yl)-1-(difluoromethyl)-3-(o-tolyl)-1H-pyrazole-4-carboxamide], the IC50 in assay [1] was less than 3 µM; in assay [2] (setting [6]) it was 10 to 25 µM; in assay [3], less than 10 µM; in assay [4], less than 3 µM; in assay [5] it was less than 3 µM.
Consider `Cc1nc(-c2ccccc2)c(C(=O)N[C@@H](Cc2c[nH]c3ccccc23)C(=O)C(N)=O)o1` [Compound 389, (S)—N-(4-amino-1-(1H-indol-3-yl)-3,4-dioxobutan-2-yl)-2-methyl-4-phenyloxazole-5-carboxamide], for which the IC50 in assay [1] was less than 3 µM; in assay [2] (setting [6]), less than 10 µM; in assay [3] it was less than 10 µM; in assay [4], less than 3 µM; in assay [5], less than 3 µM.
On to `Cc1noc(-c2ccccc2)c1C(=O)N[C@@H](Cc1ccc(O)cc1)C(=O)C(N)=O` [Compound 492, (S)—N-(4-amino-1-(4-hydroxyphenyl)-3,4-dioxobutan-2-yl)-3-methyl-5-phenylisoxazole-4-carboxamide], for which the IC50 is less than 3 µM in assay [1]; 10 to 25 µM in assay [2] (setting [6]); greater than 25 µM in assay [3]; less than 3 µM in assay [4]; less than 3 µM in assay [5].
On to `Cc1cccc(-c2oncc2C(=O)NC(Cc2ccccc2)C(=O)C(N)=O)c1` (stereo not drawn) [Compound 560, N-(4-amino-3,4-dioxo-1-phenylbutan-2-yl)-5-(m-tolyl)isoxazole-4-carboxamide], for which the IC50 in assay [1] was less than 3 µM; in assay [2] (setting [6]) it was 10 to 25 µM; in assay [3], greater than 25 µM; in assay [4] it was less than 3 µM; in assay [5] it was less than 3 µM.
